Our source for the IC50 values is patent publication US12577248B2, “Substituted [1,2,4]triazolo[1,5-a]pyrazines as spleen tyrosine kinase inhibitors” (NANJING RUIJIE PHARMA CO., LTD., priority 2020, dated 2026).

The structures appear in SMILES notation.

For the test, the target named is SYK kinase (Homo sapiens, UniProt P43405). The test is described as follows: SYK kinase assay (HTRF KinEASE-TK). It is filed as biochemical. The following applies: class symbols, read-out: Syk inhibition IC50. The procedure: A homogeneous time-resolved fluorescence (HTRF) assay was performed to assess the potential inhibitory effect of compounds on SYK kinase. The HTRF KinEASE-TK kit (Cisbio) was used. During the step, kinase will phosphorylate the substrate, and the resulting fluorescence signal is proportional to the phosphorylation level. The assay was performed in the following steps: First, the testing compounds were diluted 1:3 in succession in DMSO. The 1× kinase buffer contained 1 volume of 5× enzymatic buffer with 4 volumes of distilled water, 5 mM MgCl2, 1 mM MnCl2, and 1 mM DTT. The assays were assembled in 384 well plates (784075, Greiner) where 10 nl of compound solutions were added into each well, and the plates were centrifuged at 1000 g for 1 min. Then, 5 μl of 2×SYK in 1× kinase buffer were added to each well. The plates were centrifuged at 1000 g for 30 s and then incubated at room temperature for 10 min. The reaction was initiated by adding […] of premixed 2×TK-substrate-biotin and ATP mixture in 1× kinase buffer to the assay plates. The plates were centrifuged at 1000 g for 30 s and incubated at room temperature for 30 min. Phosphorylation was detected by adding 5 μl of 4×Sa-XL 665 in HTRF detection buffer into each well of the assay plates. The plates were centrifuged plates at 1000 g for 30 sec, and then incubated at room temperature for 1 h. Finally, the plates were read on an Envision 2104 plate reader (PerkinElmer) and the fluorescence signal was measured at 615 nm (Cryptate) and 665 nm (XL665).
A ratio (665/615 nm) was calculated for each well. The inhibition ratio was calculated as follow: […]
IC50 was calculated by fitting % Inhibition values and log of compound concentrations to nonlinear regression (dose response−variable slope) with GraphPad 6.0.
What is called IC50 is the midpoint of a concentration-inhibition curve. With `COc1cc(Nc2nc(-c3ccc4cn[nH]c4c3)cn3ncnc23)cc(OC)c1OC` [I4, 6-(1H-indazol-6-yl)-N-(3,4,5-trimethoxyphenyl)-[1,2,4]triazolo[1,5-a]pyrazin-8-amine], the IC50 fell in the range of 50 to 500 nM.

`NC(=O)c1ccc(-c2cn3ncnc3c(Nc3ccc(N4CCOCC4)cc3)n2)cc1` [I5, 4-(8-((4-morpholinophenyl)amino)-[1,2,4]triazolo[1,5-a]pyrazin-6-yl)benzamide]: the IC50 lay within 50 to 500 nM.

For `NC(=O)c1cccc(-c2cn3ncnc3c(Nc3ccc(N4CCOCC4)cc3)n2)c1` [I6, 3-(8-((4-morpholinophenyl)amino)-[1,2,4]triazolo[1,5-a]pyrazin-6-yl)benzamide], the IC50 was in the range of 50 to 500 nM.

Take `COc1cc(Nc2nc(-c3ccc4cn[nH]c4c3)cn3ncnc23)ccc1N1CCN(CC(F)(F)F)CC1` [I8, 6-(1H-indazol-6-yl)-N-(3-methoxy-4-(4-(2,2,2-trifluoroethyl)piperazin-1-yl)phenyl)-[1,2,4]triazolo[1,5-a]pyrazin-8-amine]: the IC50 is not above 50 nM.

Take `CN1CCN(c2ccc(Nc3nc(-c4ccc5cn[nH]c5c4)cn4ncnc34)cc2)CC1` [I11, 6-(1H-indazol-6-yl)-N-(4-(4-methylpiperazin-1-yl)phenyl)-[1,2,4]triazolo[1,5-a]pyrazin-8-amine]: the IC50 was not above 50 nM.

`CCS(=O)(=O)N1CCN(c2ccc(Nc3nc(-c4ccc5cn[nH]c5c4)cn4ncnc34)cc2OC)CC1` [I13, N-(4-(4-(ethylsulfonyl)piperazin-1-yl)-3-methoxyphenyl)-6-(1H-indazol-6-yl)-[1,2,4]triazolo[1,5-a]pyrazin-8-amine]: the IC50 is not above 50 nM.

`CCS(=O)(=O)N1CCN(c2ccc(Nc3nc(-c4ccc5cn[nH]c5c4)cn4ncnc34)cc2)CC1` [I14, N-(4-(4-(ethylsulfonyl)piperazin-1-yl)phenyl)-6-(1H-indazol-6-yl)-[1,2,4]triazolo[1,5-a]pyrazin-8-amine]: the IC50 was not above 50 nM.

For `COc1cc(Nc2nc(-c3ccc4cn[nH]c4c3)cn3ncnc23)ccc1N1CCN(CCO)CC1` [I15, 2-(4-(4-((6-(1H-indazol-6-yl)-[1,2,4]triazolo[1,5-a]pyrazin-8-yl)amino)-2-methoxyphenyl)piperazin-1-yl)ethan-1-ol], the IC50 was not above 50 nM.

As for `COc1cc(Nc2nc(-c3ccc4cn[nH]c4c3)cn3ncnc23)ccc1N1CCN(C2CC2)CC1` [I19, N-(4-(4-cyclopropylpiperazin-1-yl)-3-methoxyphenyl)-6-(1H-indazol-6-yl)-[1,2,4]triazolo[1,5-a]pyrazin-8-amine], the IC50 was not above 50 nM.

In the case of `FC(F)(F)Oc1cc(Nc2nc(-c3ccc4cn[nH]c4c3)cn3ncnc23)ccc1N1CCOCC1` [I20, 6-(1H-indazol-6-yl)-N-(4-morpholino-3-(trifluoromethoxy)phenyl)-[1,2,4]triazolo[1,5-a]pyrazin-8-amine], the IC50 lay within 50 to 500 nM.

Regarding `CC1(C)Oc2cc(-c3cn4ncnc4c(Nc4ccc(N5CCOCC5)cc4)n3)ccc2NC1=O` [I27, 2,2-dimethyl-7-(8-((4-morpholinophenyl)amino)-[1,2,4]triazolo[1,5-a]pyrazin-6-yl)-2H-benzo[b][1,4]oxazin-3(4H)-one], the IC50 lay within 50 to 500 nM.

Regarding `COc1cc(Nc2nc(-c3cnc4c(c3)OCC(=O)N4)cn3ncnc23)ccc1N1CCOCC1` [I30, 7-(8-((3-methoxy-4-morpholinophenyl)amino)-[1,2,4]triazolo[1,5-a]pyrazin-6-yl)-2H-pyrido[3,2-b][1,4]oxazin-3(4H)-one], the IC50 is 50 to 500 nM.

As to `O=C1COc2cc(-c3cn4ncnc4c(Nc4ccc(N5CCOCC5)cc4)n3)cnc2N1` [I31, 7-(8-((4-morpholinophenyl)amino)-[1,2,4]triazolo[1,5-a]pyrazin-6-yl)-2H-pyrido[3,2-b][1,4]oxazin-3(4H)-one], the IC50 was 50 to 500 nM.

Regarding `COc1cc(Nc2nc(-c3cnc4c(c3)OC(C)(C)C(=O)N4)cn3ncnc23)ccc1N1CCOCC1` [I32, 7-(8-((3-methoxy-4-morpholinophenyl)amino)-[1,2,4]triazolo[1,5-a]pyrazin-6-yl)-2,2-dimethyl-2H-pyrido[3,2-b][1,4]oxazin-3(4H)-one], the IC50 was in the range of 50 to 500 nM.

For `CC1(C)Oc2cc(-c3cn4ncnc4c(Nc4ccc(N5CCOCC5)cc4)n3)cnc2NC1=O` [I33, 2,2-dimethyl-7-(8-((4-morpholinophenyl)amino)-[1,2,4]triazolo[1,5-a]pyrazin-6-yl)-2H-pyrido[3,2-b][1,4]oxazin-3(4H)-one], the IC50 was 50 to 500 nM.

Regarding `COc1cc(Nc2nc(-c3cnc4c(c3)OCC(=O)N4)cn3ncnc23)cc(OC)c1OC` [I34, 7-(8-((3,4,5-trimethoxyphenyl)amino)-[1,2,4]triazolo[1,5-a]pyrazin-6-yl)-2H-pyrido[3,2-b][1,4]oxazin-3(4H)-one], the IC50 was more than 5000 nM.

On to `COc1cc(Nc2nc(-c3cnc4c(c3)OC(C)(C)C(=O)N4)cn3ncnc23)cc(OC)c1OC` [I35, 2,2-dimethyl-7-(8-((3,4,5-trimethoxyphenyl)amino)-[1,2,4]triazolo[1,5-a]pyrazin-6-yl)-2H-pyrido[3,2-b][1,4]oxazin-3(4H)-one], for which the IC50 was more than 5000 nM.

Take `COc1ccc(Nc2nc(-c3cnc4c(c3)OCC(=O)N4)cn3ncnc23)cc1OC` [I36, 7-(8-((3,4-dimethoxyphenyl)amino)-[1,2,4]triazolo[1,5-a]pyrazin-6-yl)-2H-pyrido[3,2-b][1,4]oxazin-3(4H)-one]: the IC50 lay in the range of 50 to 500 nM.

As to `COc1ccc(Nc2nc(-c3cnc4c(c3)OC(C)(C)C(=O)N4)cn3ncnc23)cc1OC` [I37, 7-(8-((3,4-dimethoxyphenyl)amino)-[1,2,4]triazolo[1,5-a]pyrazin-6-yl)-2,2-dimethyl-2H-pyrido[3,2-b][1,4]oxazin-3(4H)-one], the IC50 was 50 to 500 nM.

Turning to `O=C1COc2cc(-c3cn4ncnc4c(Nc4ccc5c(c4)OC(F)(F)O5)n3)cnc2N1` [I38, 7-(8-((2,2-difluorobenzo[d][1,3]dioxol-5-yl)amino)-[1,2,4]triazolo[1,5-a]pyrazin-6-yl)-2H-pyrido[3,2-b][1,4]oxazin-3(4H)-one], the IC50 is more than 5000 nM.

`CC1(C)Oc2cc(-c3cn4ncnc4c(Nc4ccc5c(c4)OC(F)(F)O5)n3)cnc2NC1=O` [I39, 7-(8-((2,2-difluorobenzo[d][1,3]dioxol-5-yl)amino)-[1,2,4]triazolo[1,5-a]pyrazin-6-yl)-2,2-dimethyl-2H-pyrido[3,2-b][1,4]oxazin-3(4H)-one]: the IC50 is more than 5000 nM.

For `Fc1cc(Nc2nc(-c3ccc4cn[nH]c4c3)cn3cnnc23)ccc1N1CCOCC1` [I40, N-(3-fluoro-4-morpholinophenyl)-6-(1H-indazol-6-yl)-[1,2,4]triazolo[4,3-a]pyrazin-8-amine], the IC50 is more than 5000 nM.

`Clc1cc(Nc2nc(-c3ccc4cn[nH]c4c3)cn3cnnc23)ccc1N1CCOCC1` [I41, N-(3-chloro-4-morpholinophenyl)-6-(1H-indazol-6-yl)-[1,2,4]triazolo[4,3-a]pyrazin-8-amine]: the IC50 was more than 5000 nM.

As to `Cc1cc(Nc2nc(-c3ccc4cn[nH]c4c3)cn3cnnc23)ccc1N1CCOCC1` [I42, 6-(1H-indazol-6-yl)-N-(3-methyl-4-morpholinophenyl)-[1,2,4]triazolo[4,3-a]pyrazin-8-amine], the IC50 was more than 5000 nM.

On to `c1cc(N2CCOCC2)ncc1Nc1nc(-c2ccc3cn[nH]c3c2)cn2cnnc12` [I43, 6-(1H-indazol-6-yl)-N-(6-morpholinopyridin-3-yl)-[1,2,4]triazolo[4,3-a]pyrazin-8-amine], for which the IC50 is more than 5000 nM.
